Measured values from paper PMC9395488, “First-in-human study of IM156, a novel potent biguanide oxidative phosphorylation (OXPHOS) inhibitor, in patients with advanced solid tumors” (Investigational New Drugs, 2022).

System: patients with advanced solid tumors
Experiment: First-in-human phase 1 dose-escalation study: safety, DLTs, adverse events
Type: in vivo
Description: This multicenter first-in-human dose-escalation phase 1 study (clinicaltrials.gov identifier: NCT03272256) was designed to determine the MTD or RP2D and to evaluate the safety and tolerability of IM156. Secondary endpoints included PK characteristics, efficacy assessment (objective response rate [ORR], disease control rate [DCR], duration of response [DoR] and progression-free survival [PFS]). Furthermore, exploratory objectives included identification and profiling of IM156 metabolites, evaluations of exploratory PD markers of IM156, and evaluations of any potential relationship between putative biomarkers and safety/efficacy parameters of IM156. The study was conducted in accordance with Good Clinical Practice, the International Council for Harmonisation, and guidelines governing clinical study conduct and the ethical principles originating from the Declaration of Helsinki. The study was approved by each Institutional Review Board and patients provided written informed consent. Patients were enrolled at three sites in South Korea.
The initial dose and schedule of IM156 was chosen based on animal toxicology studies. […] IM156 was administered in the fasted state, with no food for at least 2 h before and 1 h after dosing.
Three DLT-evaluable patients were enrolled at each dose level. If there were no DLTs or other prohibitive adverse events (AEs), the Safety Committee was allowed to recommend escalation to the next highest dose level. If 1 DLT occurred in the first 3 DLT-evaluable patients, enrollment in that cohort was expanded to an additional 3 DLT-evaluable patients; if ≥ 2 DLTs were reported in a cohort, that dose was considered above the MTD.
Safety was assessed through vital signs, weight, laboratory assessments, physical examinations, electrocardiogram, and reporting of AEs as graded by the National Cancer Institute’s Common Terminology Criteria for Adverse Events v4.03 (NCI-CTCAE).
DLTs were defined as the following AEs if they were attributed as related to IM156: asymptomatic grade 4 neutropenia lasting for ≥ 5 days; febrile neutropenia, regardless of grade; grade 4 thrombocytopenia or grade 3 thrombocytopenia with bleeding; any grade ≥ 3 non-hematologic AE (except grade 3 hypertension and grade 3 nausea, vomiting or diarrhea for which proper measures for prevention and treatment were not implemented, and alopecia); blood lactate levels > 5 mmol; grade ≥ 2 AE prohibiting dosing of IM156 for ≥ 21 continuous days except for alterations in serum calcium or phosphorus levels. The safety analysis includes all patients who received at least one dose of study drug.
The safety population was defined as all patients who received at least one dose of IM156. The PK population was not defined in the protocol but included all patients with sufficient PK data to perform adequate PK modeling. The efficacy population included all patients who underwent at least one tumor imaging assessment while receiving IM156. Safety was assessed using descriptive statistics (e.g., DLTs, AEs, laboratory tests, physical examination, 12-lead ECG). The incidence and number of events were reported for the DLTs observed in Cycle 1 per dose group. […] Adverse events and TRAEs were standardized with the System Organ Class and the Preferred Term using the Medical Dictionary for Regulatory Activities v23.0. In addition, TEAEs, serious adverse events (SAEs), TEAE severity, and TEAEs leading to withdrawal were presented by dose group. Efficacy data were to be presented by Waterfall and Swim Lane plots. Time to event endpoints (e.g., DoR, PFS) were determined using Kaplan–Meier estimations with the median value for each endpoint summarized.

NC(=Nc1ccc(OC(F)(F)F)cc1)N=C(N)N1CCCC1 [IM156]
TEAE Purpura grade 2 (DL7 1200 mg orally daily (n=4)): 0 | TEAE Purpura grade 3 (DL7 1200 mg orally daily (n=4)): 0 | TEAE Purpura grade 4 (DL7 1200 mg orally daily (n=4)): 0 | TEAE Urinary retention grade 1 (DL7 1200 mg orally daily (n=4)): 0 | TEAE Urinary retention grade 2 (DL7 1200 mg orally daily (n=4)): 0 | TEAE Urinary retention grade 3 (DL7 1200 mg orally daily (n=4)): 0 | TEAE Urinary retention grade 4 (DL7 1200 mg orally daily (n=4)): 0 | TEAE Urinary tract disorder grade 1 (DL7 1200 mg orally daily (n=4)): 0 | TEAE Urinary tract disorder grade 2 (DL7 1200 mg orally daily (n=4)): 1 | TEAE Urinary tract disorder grade 3 (DL7 1200 mg orally daily (n=4)): 0 | TEAE Urinary tract disorder grade 4 (DL7 1200 mg orally daily (n=4)): 0 | TEAE Adrenal insufficiency grade 1 (Total): 0 | TEAE Adrenal insufficiency grade 2 (Total): 1 | TEAE Adrenal insufficiency grade 3 (Total): 0 | TEAE Adrenal insufficiency grade 4 (Total): 0 | TEAE Anaemia grade 1 (Total): 0 | TEAE Anaemia grade 2 (Total): 3 | TEAE Anaemia grade 3 (Total): 2 | TEAE Anaemia grade 4 (Total): 0 | TEAE Appendicitis perforated grade 1 (Total): 0 | TEAE Appendicitis perforated grade 2 (Total): 0 | TEAE Appendicitis perforated grade 3 (Total): 1 | TEAE Appendicitis perforated grade 4 (Total): 0 | TEAE Back pain grade 1 (Total): 0 | TEAE Back pain grade 2 (Total): 2 | TEAE Back pain grade 3 (Total): 0 | TEAE Back pain grade 4 (Total): 0 | TEAE Cystitis grade 1 (Total): 0 | TEAE Cystitis grade 2 (Total): 1 | TEAE Cystitis grade 3 (Total): 0 | TEAE Cystitis grade 4 (Total): 0 | TEAE Dry skin grade 1 (Total): 0 | TEAE Dry skin grade 2 (Total): 1 | TEAE Dry skin grade 3 (Total): 0 | TEAE Dry skin grade 4 (Total): 0 | TEAE Flank pain grade 1 (Total): 0 | TEAE Flank pain grade 2 (Total): 1 | TEAE Flank pain grade 3 (Total): 0 | TEAE Flank pain grade 4 (Total): 0 | TEAE Hypertension grade 1 (Total): 0 | TEAE Hypertension grade 2 (Total): 1 | TEAE Hypertension grade 3 (Total): 0 | TEAE Hypertension grade 4 (Total): 0 | TEAE Hypotension grade 1 (Total): 0 | TEAE Hypotension grade 2 (Total): 1 | TEAE Hypotension grade 3 (Total): 0 | TEAE Hypotension grade 4 (Total): 0 | TEAE Insomnia grade 1 (Total): 2 | TEAE Insomnia grade 2 (Total): 1 | TEAE Insomnia grade 3 (Total): 0 | TEAE Insomnia grade 4 (Total): 0 | TEAE Pain in extremity grade 1 (Total): 1 | TEAE Pain in extremity grade 2 (Total): 1 | TEAE Pain in extremity grade 3 (Total): 0 | TEAE Pain in extremity grade 4 (Total): 0 | TEAE Pruritus grade 1 (Total): 1 | TEAE Pruritus grade 2 (Total): 0 | TEAE Pruritus grade 3 (Total): 0 | TEAE Pruritus grade 4 (Total): 0 | TEAE Psychiatric disorders grade 1 (Total): 2 | TEAE Psychiatric disorders grade 2 (Total): 1 | TEAE Psychiatric disorders grade 3 (Total): 0 | TEAE Psychiatric disorders grade 4 (Total): 0 | TEAE Purpura grade 1 (Total): 1 | TEAE Purpura grade 2 (Total): 0 | TEAE Purpura grade 3 (Total): 0 | TEAE Purpura grade 4 (Total): 0 | TEAE Urinary retention grade 1 (Total): 0 | TEAE Urinary retention grade 2 (Total): 1 | TEAE Urinary retention grade 3 (Total): 0 | TEAE Urinary retention grade 4 (Total): 0 | TEAE Urinary tract disorder grade 1 (Total): 0 | TEAE Urinary tract disorder grade 2 (Total): 1 | TEAE Urinary tract disorder grade 3 (Total): 0 | TEAE Urinary tract disorder grade 4 (Total): 0 | TRAE Abdominal Pain, > G3 (patients) (Total, N = 22): 0 | TRAE Abdominal Pain, All grades (patients) (Total, N = 22): 2 | TRAE Blood Lactic Acid increased, > G3 (patients) (Total, N = 22): 0 | TRAE Blood Lactic Acid increased, All grades (patients) (Total, N = 22): 2 | TRAE Constipation, > G3 (patients) (Total, N = 22): 0 | TRAE Constipation, All grades (patients) (Total, N = 22): 2 | TRAE Decreased appetite, > G3 (patients) (Total, N = 22): 0 | TRAE Diarrhoea, > G3 (patients) (Total, N = 22): 0 | TRAE Diarrhoea, All grades (patients) (Total, N = 22): 10 | TRAE Fatigue, > G3 (patients) (Total, N = 22): 0 | TRAE Fatigue, All grades (patients) (Total, N = 22): 4 | TRAE Insomnia, > G3 (patients) (Total, N = 22): 0 | TRAE Insomnia, All grades (patients) (Total, N = 22): 2 | TRAE Nausea, > G3 (patients) (Total, N = 22): 3 | TRAE Nausea, All grades (patients) (Total, N = 22): 15 | TRAE Vomiting, > G3 (patients) (Total, N = 22): 0 | TRAE Vomiting, All grades (patients) (Total, N = 22): 9 | TEAE Abdominal discomfort, grade 1 (Total, all dose levels): 1 | TEAE Abdominal distension, grade 2 (Total, all dose levels): 1 | TEAE Abdominal pain upper, grade 2 (Total, all dose levels): 1 | TEAE Abdominal pain, grade 1 (Total, all dose levels): 2 | TEAE Abdominal pain, grade 2 (Total, all dose levels): 3 | TEAE Abdominal pain, grade 3 (Total, all dose levels): 1 | TEAE Akathisia, grade 2 (Total, all dose levels): 1 | TEAE Alanine aminotransferase increased, grade 1 (Total, all dose levels): 3 | TEAE Alanine aminotransferase increased, grade 3 (Total, all dose levels): 1 | TEAE Ascites, grade 1 (Total, all dose levels): 1 | TEAE Aspartate aminotransferase increased, grade 1 (Total, all dose levels): 2 | TEAE Aspartate aminotransferase increased, grade 2 (Total, all dose levels): 1 | TEAE Aspartate aminotransferase increased, grade 3 (Total, all dose levels): 1 | TEAE Asthenia, grade 1 (Total, all dose levels): 3 | TEAE Blood alkaline phosphatase increased, grade 2 (Total, all dose levels): 1 | TEAE Blood alkaline phosphatase increased, grade 3 (Total, all dose levels): 1 | TEAE Blood creatinine increased, grade 1 (Total, all dose levels): 3 | TEAE Blood lactic acid increased, grade 1 (Total, all dose levels): 2 | TEAE Chest pain, grade 1 (Total, all dose levels): 1 | TEAE Constipation, grade 1 (Total, all dose levels): 5 | TEAE Constipation, grade 2 (Total, all dose levels): 1 | TEAE Cough, grade 1 (Total, all dose levels): 3 | TEAE Decreased appetite, grade 1 (Total, all dose levels): 3 | TEAE Decreased appetite, grade 2 (Total, all dose levels): 1 | TEAE Diarrhoea, grade 1 (Total, all dose levels): 9
